Several values for one entry are separate records, joined by “and”; a condition that tells them apart may be missing. Identical values can stand only once.
Assays:
[1] = tested on: pSTAT5; test: Phosphoflow, G-CSF-induced pSTAT5 in Kasumi-1 cells; assay type: cell-based; conditions: mean, n ≥ 2, read-out: Ligand Induced Phosphorylation (Phosphoflow) pSTAT5 (G-CSF) IC50
Procedure: (§1) Phosphoflow analysis was done as described in Xu et al. Briefly, Kasumi-1 cells, were serum-starved, pre-treated with compound or DMSO (1 hour, RT) and then stimulated with 20 μl of GCSF (10 ng/ml) for 15 minutes at 37°C. The cells were then permeabilized and stained with Alexa647-pSTAT3, Alexa488-pSTAT5 and PE-pSTAT1 antibodies and analyzed using the BD LSR2. FCS files were exported and uploaded to Cytobank for determination of phosphoproteins as earlier. Gating was done on live, single cells and then gates selected for positive ligand-activated pSTAT3 and pSTAT1. IC50 values were calculated using the GraphPad Prism.

[2] = biological target: STAT3 (Homo sapiens, UniProt P40763); test: STAT3/pY-peptide binding surface plasmon resonance (SPR) assay; conditions: for Inhibition of STAT3 binding to pY-peptide compared with C188: SPR; for IC50: STAT3 200 nM, EGFR pY1068 dodecapeptide, mean, n ≥ 2, read-out: pY-Peptide Binding (SPR) IC50
STAT3, sequence (P40763 whole entry, species assumed): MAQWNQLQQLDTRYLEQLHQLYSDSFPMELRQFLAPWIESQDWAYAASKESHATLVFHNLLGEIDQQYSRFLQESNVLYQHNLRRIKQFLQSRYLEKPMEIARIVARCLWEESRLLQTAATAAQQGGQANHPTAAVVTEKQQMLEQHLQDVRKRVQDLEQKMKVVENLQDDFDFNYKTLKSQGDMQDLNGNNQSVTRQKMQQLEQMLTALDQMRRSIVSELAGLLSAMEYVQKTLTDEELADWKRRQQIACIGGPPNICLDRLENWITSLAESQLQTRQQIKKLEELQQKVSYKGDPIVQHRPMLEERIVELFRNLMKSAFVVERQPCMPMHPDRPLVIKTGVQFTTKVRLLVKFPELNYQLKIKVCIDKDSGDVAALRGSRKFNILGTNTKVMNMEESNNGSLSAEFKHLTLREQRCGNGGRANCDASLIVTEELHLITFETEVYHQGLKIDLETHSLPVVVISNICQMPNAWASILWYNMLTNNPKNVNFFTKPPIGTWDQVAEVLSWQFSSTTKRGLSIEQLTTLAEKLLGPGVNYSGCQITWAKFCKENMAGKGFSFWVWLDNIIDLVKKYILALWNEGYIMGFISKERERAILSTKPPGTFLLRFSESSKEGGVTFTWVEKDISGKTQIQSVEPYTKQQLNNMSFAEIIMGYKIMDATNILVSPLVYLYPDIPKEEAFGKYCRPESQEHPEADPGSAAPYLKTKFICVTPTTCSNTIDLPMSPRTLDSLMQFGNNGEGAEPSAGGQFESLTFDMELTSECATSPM
Procedure: The equilibrium binding levels obtained ± compound were normalized (resonance obtained in the presence of compound ÷ the resonance obtained in the absence of compound × 100) and plotted against Log [nM] […] B. Inhibition of ligand-stimulated STAT phosphorylation, measured by phosphoflow. Serum-starved (1 hour) Kasumi-1 cells, pre-incubated with compound/DMSO (1 hour), were treated with G-CSF (10 ng/ml, 15 min, left two panels) or IFN-γ (10ng/ml, 15 min, right panel). Cells were permeabilized and stained with Alexa647-pSTAT3, and PE-pSTAT1 antibodies and analyzed on BD LSR2. FCS files were uploaded to Cytobank for pSTAT3 and pSTAT1 quantitation. Histograms depicting pSTAT3 and pSTAT1 levels are shown. C. Mean fluorescence (pSTAT3/1) levels were plotted as function the Log [M] compound, and IC50 calculated using GraphPad. […] D. Inhibition of ligand-stimulated STAT phosphorylation, measured by Luminex. Serum-starved (1 hour) Kasumi-1 cells, pre-incubated with compound/DMSO (0/0.1/0.3/1/3/10/100 μM, 1 hour), were treated with G-CSF (10 ng/ml, 15′). Total protein extracts of cells were assayed for pSTAT3, pSTAT1, and GAPDH levels by Luminex. GAPDH-normalized pSTAT3 or pSTAT1 values were divided by this ratio for untreated cells and expressed in percentage. These values were plotted as a function of Log [M] compound, and IC50 values calculated using GraphPad. […]
3-D pharmacophore sorting used to evaluate the effect of each compound on STAT3 binding. Responses were normalized by dividing the […]
fingerprint screening were converted into 3-D structures compounds at 2 min and multiplying by 100. IC values […]
for analysis as described below. were determined by plotting % maximum response as a 3-D pharmacophore generation function of log concentration of compound and fitting the Each molecular chemical feature, including experimental points to a competitive binding model using hydrogen bond donor, hydrogen bond acceptor, positive a four parameter logistic equation: R = Rhigh − (Rhigh − R low)/ (1 + conc/A1)^A2, where R = percent response at and negative ionizable group, and hydrophobic region, inhibitor concentration, R = percent response with no was generated using the LigandScout application compound, R= percent response at highest compound high framework and projected into 3-D space. concentration, A2 = fitting parameter (slope) and A1 = low Feature-pairing IC50 (BIAevaluation Software version 4.1). The inhibition Each chemical feature was converted into distance constant (Ki) was derived from the Cheng-Prusoff bin and the complete set of distance bins used to construct equation Ki=IC50/(1+[C]/Kd) as used by Halling et al a cost matrix. The most favorable pairing based on cost where C stands for STAT3 concentration used in the SPR matrix was identified. assay and Kd denotes the dissociation constant for STAT3 3-D pharmacophore transformation binding to its phosphorylated EGFR ligand in the SPR […]
STAT3/pY-peptide binding assay and total protein extracted from cell pellets. […]
STAT3 binding assays were performed at 25 °C (Millipore, Danvers, MA) coupled to antibody against

[3] = biological target: T1, pSTAT1 (Tyr-701) (Homo sapiens, UniProt P42224); test: Phosphoflow, IFN-γ-induced pSTAT1 in Kasumi-1 cells; assay type: cell-based; conditions: Kasumi-1, IFN-γ 10 ng/ml 15 min; mean, n ≥ 2; read-out: Ligand Induced Phosphorylation (Phosphoflow) pSTAT1 (IFN-γ) IC50
T1 construct: endogenous in cells; host or cells: Kasumi-1
T1 sequence (P42224 1-750): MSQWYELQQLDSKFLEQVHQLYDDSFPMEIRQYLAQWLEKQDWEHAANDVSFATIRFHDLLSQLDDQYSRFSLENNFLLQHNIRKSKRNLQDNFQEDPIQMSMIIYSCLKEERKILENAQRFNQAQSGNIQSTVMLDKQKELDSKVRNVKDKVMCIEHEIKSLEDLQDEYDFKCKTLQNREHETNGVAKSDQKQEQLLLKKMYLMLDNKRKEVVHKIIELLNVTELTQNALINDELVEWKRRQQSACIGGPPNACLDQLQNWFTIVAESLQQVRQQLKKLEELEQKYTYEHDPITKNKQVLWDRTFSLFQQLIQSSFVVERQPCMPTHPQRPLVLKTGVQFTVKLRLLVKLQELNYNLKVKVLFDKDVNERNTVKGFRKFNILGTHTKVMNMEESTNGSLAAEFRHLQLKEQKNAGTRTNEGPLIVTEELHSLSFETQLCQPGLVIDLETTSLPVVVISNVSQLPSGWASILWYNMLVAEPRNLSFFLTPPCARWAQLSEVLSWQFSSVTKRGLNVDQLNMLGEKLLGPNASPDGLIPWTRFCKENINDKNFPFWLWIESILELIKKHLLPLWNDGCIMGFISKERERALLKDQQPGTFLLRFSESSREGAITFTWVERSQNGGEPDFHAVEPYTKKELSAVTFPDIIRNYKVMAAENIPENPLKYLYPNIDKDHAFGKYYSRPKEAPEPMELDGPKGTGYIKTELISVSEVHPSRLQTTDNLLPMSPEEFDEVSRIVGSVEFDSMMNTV
Procedure: (§2) The equilibrium binding levels obtained ± compound were normalized (resonance obtained in the presence of compound ÷ the resonance obtained in the absence of compound × 100) and plotted against Log [nM] […] B. Inhibition of ligand-stimulated STAT phosphorylation, measured by phosphoflow. Serum-starved (1 hour) Kasumi-1 cells, pre-incubated with compound/DMSO (1 hour), were treated with G-CSF (10 ng/ml, 15 min, left two panels) or IFN-γ (10ng/ml, 15 min, right panel). Cells were permeabilized and stained with Alexa647-pSTAT3, and PE-pSTAT1 antibodies and analyzed on BD LSR2. FCS files were uploaded to Cytobank for pSTAT3 and pSTAT1 quantitation. Histograms depicting pSTAT3 and pSTAT1 levels are shown. C. Mean fluorescence (pSTAT3/1) levels were plotted as function the Log [M] compound, and IC50 calculated using GraphPad. […] D. Inhibition of ligand-stimulated STAT phosphorylation, measured by Luminex. Serum-starved (1 hour) Kasumi-1 cells, pre-incubated with compound/DMSO (0/0.1/0.3/1/3/10/100 μM, 1 hour), were treated with G-CSF (10 ng/ml, 15′). Total protein extracts of cells were assayed for pSTAT3, pSTAT1, and GAPDH levels by Luminex. GAPDH-normalized pSTAT3 or pSTAT1 values were divided by this ratio for untreated cells and expressed in percentage. These values were plotted as a function of Log [M] compound, and IC50 values calculated using GraphPad.
as §1

[4] = biological target: T2, pSTAT3 (Tyr-705) (Homo sapiens, UniProt P40763); test: Phosphoflow, G-CSF-induced STAT3 phosphorylation in Kasumi-1 cells; assay type: cell-based; conditions: Kasumi-1, G-CSF 10 ng/ml 15 min; mean, n ≥ 2; read-out: Ligand Induced Phosphorylation (Phosphoflow) pSTAT3 (GCSF) IC50
T2 construct: endogenous in cells; host or cells: Kasumi-1
T2 sequence (P40763 whole entry): as the sequence (P40763 whole entry, species assumed) above
Procedure: as §2, §1

O=[N+]([O-])c1cccc(S(=O)(=O)Nc2cc(Sc3nc4ccccc4s3)c(O)c3ccccc23)c1 [Compound C188-1]
IC50 [1]: 1.5 µM
Inhibition of STAT3 binding to pY-peptide compared with C188 [2]: improved inhibition
IC50 [2]: 5.5 ± 2.1 µM
IC50 [3]: 50.5 ± 53 µM
IC50 [4]: 16.2 ± 24.1 µM

Cc1ccc(S(=O)(=O)Nc2cc(Sc3nc4ccccc4s3)c(O)c3ccccc23)c(C)c1 [Compound C188-2]
IC50 [1]: 35 ± 29.7 µM
IC50 [2]: 20 ± 9.9 µM
IC50 [3]: 51 µM
IC50 [4]: 29.8 ± 25.9 µM

Cc1cc(C)c(S(=O)(=O)Nc2cc(C(C(=O)OC(C)C)C(=O)C(F)(F)F)c(O)c3ccccc23)c(C)c1 (centres unmarked) [Compound C188-3]
IC50 [1]: 21 µM
IC50 [2]: 17.3 ± 8.5 µM
IC50 [3]: 34.5 ± 10.6 µM
IC50 [4]: 21.6 ± 11.1 µM

CC(C)OC(=O)C(C(=O)C(F)(F)F)c1cc(NS(=O)(=O)c2ccc(Br)cc2)c2ccccc2c1O (centres unmarked) [Compound C188-4]
IC50 [2]: 21.5 ± 21.9 µM
IC50 [3]: 29 µM
IC50 [4]: 11 ± 1.4 µM

CC(C)OC(=O)C(C(=O)C(F)(F)F)c1cc(NS(=O)(=O)c2ccc(Cl)cc2)c2ccccc2c1O (centres unmarked) [Compound C188-5]
IC50 [1]: > 300 µM
IC50 [2]: 11.5 ± 7.8 µM
IC50 [4]: 27 ± 1.4 µM

CC(C)OC(=O)C(C(=O)C(F)(F)F)c1cc(NS(=O)(=O)c2ccccc2)c2ccccc2c1O (centres unmarked) [Compound C188-6]
IC50 [2]: 16 ± 15.6 µM
IC50 [4]: 23.5 ± 6.4 µM

Cc1cc(C)c(S(=O)(=O)Nc2cc(Cl)c(O)c3ccccc23)cc1C [Compound C188-10]
IC50 [1]: > 300 µM
Inhibition of STAT3 binding to pY-peptide compared with C188 [2]: activity similar to C188
IC50 [2]: 8 ± 2.8 µM
IC50 [3]: > 300 µM
IC50 [4]: > 300 µM

CC(=O)c1c(C)oc2c1cc(NS(=O)(=O)c1cc(C)ccc1C)c1ccccc12 [Compound C188-11]
IC50 [1]: > 300 µM
IC50 [2]: 55 µM and 54.5 µM
IC50 [3]: > 300 µM
IC50 [4]: > 300 µM

CC(=O)Nc1c([N+](=O)[O-])cc(NS(=O)(=O)c2ccccc2)c2ccccc12 [Compound C188-12]
IC50 [1]: > 300 µM
IC50 [2]: > 300 µM
IC50 [3]: > 300 µM
IC50 [4]: > 300 µM

CC(=O)Nc1c([N+](=O)[O-])cc(N(C(C)=O)S(=O)(=O)c2ccccc2)c2ccccc12 [Compound C188-13]
IC50 [1]: > 300 µM
IC50 [2]: 280 ± 41 µM
IC50 [3]: > 300 µM

Cc1cc(C)c(C)c(S(=O)(=O)Nc2cc(SCC(=O)O)c(O)c3ccccc23)c1C [Compound C188-14]
IC50 [1]: 10 µM
Inhibition of STAT3 binding to pY-peptide compared with C188 [2]: activity similar to C188
IC50 [2]: 8.7 ± 9.1 µM
IC50 [3]: 57 µM
IC50 [4]: 40.3 ± 50.8 µM

O=S(=O)(Nc1cc(Sc2ccccc2)c(O)c2ccccc12)c1ccc(F)cc1 [Compound C188-16]
IC50 [1]: > 300 µM
Inhibition of STAT3 binding to pY-peptide compared with C188 [2]: improved inhibition
IC50 [2]: 4 µM
IC50 [3]: > 300 µM

O=S(=O)(Nc1cc(Sc2nc[nH]n2)c(O)c2ccccc12)c1ccc(F)cc1 [Compound C188-17]
Inhibition of STAT3 binding to pY-peptide compared with C188 [2]: improved inhibition
IC50 [2]: 3.5 ± 2.1 µM
IC50 [3]: > 300 µM
IC50 [4]: > 300 µM

Cc1cc(C)c(S(=O)(=O)Nc2cc(Sc3nc[nH]n3)c(O)c3ccccc23)cc1C [Compound C188-18]
IC50 [1]: > 300 µM
Inhibition of STAT3 binding to pY-peptide compared with C188 [2]: improved inhibition
IC50 [2]: 3.5 ± 0.7 µM
IC50 [3]: > 300 µM
IC50 [4]: > 300 µM

COc1ccc(OC)c(S(=O)(=O)Nc2cc(Sc3ccccc3)c(O)c3ccccc23)c1 [Compound C188-19]
IC50 [1]: > 300 µM
Inhibition of STAT3 binding to pY-peptide compared with C188 [2]: improved inhibition
IC50 [2]: 5.5 ± 4.9 µM
IC50 [3]: > 300 µM
IC50 [4]: > 300 µM

CCOC(=O)c1c(C)oc2c1cc(NS(=O)(=O)c1cccc3cccnc13)c1ccccc12 [Compound C188-20]
IC50 [1]: > 300 µM
IC50 [2]: 27 ± 25.5 µM
IC50 [3]: 9 µM
IC50 [4]: > 300 µM

O=S(=O)(Nc1ccc(O)c2ccccc12)c1ccccc1 [Compound C188-21]
IC50 [2]: > 300 µM
IC50 [3]: > 300 µM
IC50 [4]: 15 ± 17 µM

Cc1ccc(S(=O)(=O)Nc2cc3c4c(oc3c3ccccc23)CCC(C(C)(C)C)C4)c(C)c1 (centres unmarked) [Compound C188-26]
IC50 [1]: > 300 µM
IC50 [2]: 89 ± 2.8 µM

O=S(=O)(Nc1ccc(O)c2ccccc12)c1ccc(F)cc1 [Compound C188-27]
IC50 [1]: > 300 µM
IC50 [2]: > 300 µM
IC50 [3]: > 300 µM

CC(=O)Oc1c(Br)cc(N(C(C)=O)S(=O)(=O)c2ccc(C)cc2)c2ccccc12 [Compound C188-28]
IC50 [1]: > 300 µM
IC50 [2]: 71 ± 33.9 µM
IC50 [3]: 10 µM

COCc1oc2c(cc(NS(=O)(=O)c3ccc(F)cc3)c3ccccc32)c1C(=O)OC [Compound C188-29]
IC50 [1]: > 300 µM
IC50 [2]: 27.5 ± 10.6 µM
IC50 [3]: > 300 µM

CCOC(=O)c1c(C)oc2c1cc(NS(=O)(=O)c1ccc(C(C)(C)C)cc1)c1ccccc12 [Compound C188-35]
IC50 [1]: > 300 µM
IC50 [2]: 25.5 ± 6.4 µM
IC50 [3]: > 300 µM

COc1ccc(S(=O)(=O)Nc2cc(Sc3cccc4cccnc34)c(O)c3ccccc23)cc1 [Compound C188-38]
IC50 [2]: 18.5 ± 9.2 µM
IC50 [3]: > 300 µM

From PMC5041982, “Small-molecule inhibition of STAT3 in radioresistant head and neck squamous cell carcinoma” (Oncotarget, 2016)
